SMILES strings stand for the structures.

One assay addresses Helios (Homo sapiens, UniProt Q96SW2+Q9UKS7). Put plainly: Helios Cellular Degradation Assay (Helios readout). Also on record: endogenous in cells; host or cells: Jurkat. Conditions: Jurkat cells, 72 h incubation, Helios-PE antibody staining, flow cytometry; read-out: Helios Jurkat IC50. Type of assay: cell-based. The essentials: (§1)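 Jurkat cells (80,000/well, RPMI+10% FBS) were treated with compound for 72 h at 37° C. After fixation and permeabilization they were stained with fluorescent antibodies to Helios, Ikaros and Aiolos. Intracellular protein levels were quantified by flow cytometry.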
(In flow cytometry, cells or beads pass a laser one at a time.)

A further assay addresses Ikaros (Homo sapiens, UniProt Q13422+Q96SW2). Put plainly: Helios Cellular Degradation Assay (Ikaros readout). Conditions: Jurkat cells, 72 h incubation, Ikaros-Alexa488 antibody staining, flow cytometry; read-out: Ikaros Jurkat IC50. Also on record: endogenous in cells; host or cells: Jurkat. The assay is classed as cell-based. Summed up: as §1

Sequence of Ikaros (Q13422 whole entry): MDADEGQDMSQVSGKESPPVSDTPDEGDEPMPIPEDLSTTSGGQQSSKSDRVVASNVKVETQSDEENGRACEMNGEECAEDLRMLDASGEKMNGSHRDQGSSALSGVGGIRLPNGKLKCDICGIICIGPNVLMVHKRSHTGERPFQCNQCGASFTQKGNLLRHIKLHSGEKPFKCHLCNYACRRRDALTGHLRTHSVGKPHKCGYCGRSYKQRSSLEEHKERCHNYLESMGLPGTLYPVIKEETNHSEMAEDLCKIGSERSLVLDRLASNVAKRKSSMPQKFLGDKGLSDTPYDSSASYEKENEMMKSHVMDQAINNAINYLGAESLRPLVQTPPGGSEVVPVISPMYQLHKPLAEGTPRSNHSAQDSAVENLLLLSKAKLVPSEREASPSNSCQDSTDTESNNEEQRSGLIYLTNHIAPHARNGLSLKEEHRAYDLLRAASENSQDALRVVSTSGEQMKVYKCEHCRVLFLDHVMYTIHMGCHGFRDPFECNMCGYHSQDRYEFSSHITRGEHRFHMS
Sequence of Ikaros (Q96SW2 whole entry): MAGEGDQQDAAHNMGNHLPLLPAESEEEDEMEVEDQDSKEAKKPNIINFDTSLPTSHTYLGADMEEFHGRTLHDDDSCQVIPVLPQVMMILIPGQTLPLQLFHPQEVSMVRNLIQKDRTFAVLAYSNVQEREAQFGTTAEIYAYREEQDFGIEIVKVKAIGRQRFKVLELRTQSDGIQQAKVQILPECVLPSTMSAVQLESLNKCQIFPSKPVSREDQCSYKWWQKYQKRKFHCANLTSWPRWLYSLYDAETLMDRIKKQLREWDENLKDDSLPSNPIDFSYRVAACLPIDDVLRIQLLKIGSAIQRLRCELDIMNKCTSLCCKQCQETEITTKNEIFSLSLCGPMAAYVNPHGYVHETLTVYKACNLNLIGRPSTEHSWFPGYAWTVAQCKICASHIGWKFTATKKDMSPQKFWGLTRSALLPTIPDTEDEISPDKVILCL
Sequence of Ikaros (Q16531 whole entry partner): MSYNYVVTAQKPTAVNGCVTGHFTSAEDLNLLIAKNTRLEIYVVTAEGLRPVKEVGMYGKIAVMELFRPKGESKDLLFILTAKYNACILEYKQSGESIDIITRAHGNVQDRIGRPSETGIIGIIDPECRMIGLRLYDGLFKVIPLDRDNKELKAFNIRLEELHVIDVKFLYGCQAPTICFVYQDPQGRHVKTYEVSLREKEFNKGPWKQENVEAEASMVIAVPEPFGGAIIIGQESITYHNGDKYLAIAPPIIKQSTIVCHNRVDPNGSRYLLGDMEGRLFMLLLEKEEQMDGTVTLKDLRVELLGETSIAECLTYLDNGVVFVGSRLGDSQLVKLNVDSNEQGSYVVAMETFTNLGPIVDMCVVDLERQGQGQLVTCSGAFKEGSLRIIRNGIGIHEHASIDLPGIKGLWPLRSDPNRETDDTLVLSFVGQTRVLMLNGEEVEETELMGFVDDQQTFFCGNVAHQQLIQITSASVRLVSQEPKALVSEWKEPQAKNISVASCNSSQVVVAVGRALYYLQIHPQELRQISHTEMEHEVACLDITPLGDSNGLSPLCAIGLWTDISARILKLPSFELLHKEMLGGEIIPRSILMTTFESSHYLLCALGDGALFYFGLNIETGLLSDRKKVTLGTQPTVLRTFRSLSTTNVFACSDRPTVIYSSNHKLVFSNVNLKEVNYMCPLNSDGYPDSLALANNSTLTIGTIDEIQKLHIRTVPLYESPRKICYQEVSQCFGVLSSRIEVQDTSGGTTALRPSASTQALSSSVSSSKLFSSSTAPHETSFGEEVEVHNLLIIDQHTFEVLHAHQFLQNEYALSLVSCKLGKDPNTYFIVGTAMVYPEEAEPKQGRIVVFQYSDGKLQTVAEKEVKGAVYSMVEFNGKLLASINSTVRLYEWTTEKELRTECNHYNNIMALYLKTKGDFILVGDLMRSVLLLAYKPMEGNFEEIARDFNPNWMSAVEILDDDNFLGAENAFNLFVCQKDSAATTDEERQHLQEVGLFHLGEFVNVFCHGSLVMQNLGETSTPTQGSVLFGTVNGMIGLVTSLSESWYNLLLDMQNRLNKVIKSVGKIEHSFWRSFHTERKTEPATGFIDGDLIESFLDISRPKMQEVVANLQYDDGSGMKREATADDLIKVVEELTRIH
Sequence of Helios (Q9UKS7 whole entry): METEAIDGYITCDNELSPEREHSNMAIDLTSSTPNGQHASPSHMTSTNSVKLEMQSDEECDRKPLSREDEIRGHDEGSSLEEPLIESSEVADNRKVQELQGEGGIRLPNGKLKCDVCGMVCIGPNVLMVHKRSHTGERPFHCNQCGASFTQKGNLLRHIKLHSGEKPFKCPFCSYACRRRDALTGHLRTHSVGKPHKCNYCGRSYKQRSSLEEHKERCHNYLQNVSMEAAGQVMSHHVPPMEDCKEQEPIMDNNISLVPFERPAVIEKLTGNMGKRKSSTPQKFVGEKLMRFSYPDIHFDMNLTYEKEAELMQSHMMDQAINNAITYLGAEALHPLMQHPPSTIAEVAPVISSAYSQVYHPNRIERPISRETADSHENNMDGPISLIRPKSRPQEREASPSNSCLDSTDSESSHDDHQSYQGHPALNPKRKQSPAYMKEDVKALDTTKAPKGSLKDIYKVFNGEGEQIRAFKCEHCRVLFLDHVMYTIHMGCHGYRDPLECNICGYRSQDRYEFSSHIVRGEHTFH
Sequence of Helios (Q96SW2 whole entry): as the sequence (Q96SW2 whole entry) above
Sequence of Helios (Q16531 whole entry partner): as the sequence (Q16531 whole entry partner) above

For `N#Cc1cnc(-c2ccc3c(c2)CN(C2CCC(=O)NC2=O)C3=O)nc1N` (stereo not drawn) [Example 80, 4-Amino-2-[2-(2,6-dioxopiperidin-3-yl)-1-oxo-2,3-dihydro-1H-isoindol-5-yl]pyrimidine-5-carbonitrile], the DC50 is 320 nM on Helios and more than 20000 nM on Ikaros.

As to `NC(=O)c1cnc(-c2ccc3c(c2)CN(C2CCC(=O)NC2=O)C3=O)nc1N` (stereo not drawn) [Example 81, 4-amino-2-[2-(2,6-dioxopiperidin-3-yl)-1-oxo-2,3-dihydro-1H-isoindol-5-yl]pyrimidine-5-carboxamide], the values for the DC50 at Helios and at Ikaros were 3900 nM and more than 20000 nM, respectively.

For `Nc1nc(-c2ccc3c(c2)CN([C@H]2CCC(=O)NC2=O)C3=O)cc2ccccc12` [Example 82, (3S)-3-[5-(1-aminoisoquinolin-3-yl)-1-oxo-2,3-dihydro-1H-isoindol-2-yl]piperidine-2,6-dione], the DC50 was 4 nM on Helios and not below 20000 nM at Ikaros.

Turning to `Nc1nc(-c2ccc3c(c2)CN([C@@H]2CCC(=O)NC2=O)C3=O)cc2ccccc12` [Example 83, (3R)-3-[5-(1-aminoisoquinolin-3-yl)-1-oxo-2,3-dihydro-1H-isoindol-2-yl]piperidine-2,6-dione], the DC50 is 30 nM on Helios and not below 20000 nM on Ikaros.

On to `CCOc1c(-c2ccc3c(c2)CN([C@H]2CCC(=O)NC2=O)C3=O)nc(N)c2ccccc12` [Example 84, (3S)-3-[5-(1-amino-4-ethoxyisoquinolin-3-yl)-1-oxo-2,3-dihydro-1H-isoindol-2-yl]piperidine-2,6-dione], for which the results for the DC50 at Helios and at Ikaros were 3 nM and not below 20000 nM, respectively.

Take `CCOc1c(-c2ccc3c(c2)CN(C2CCC(=O)NC2=O)C3=O)ncc2ccccc12` (stereo not drawn) [Example 85, 3-(5-(4-ethoxyisoquinolin-3-yl)-1-oxoisoindolin-2-yl)piperidine-2,6-dione]: the DC50 at Helios was found to be 10 nM; at Ikaros, 1820 nM.

On to `CCOc1c(-c2ccc3c(c2)CN(C2CCC(=O)NC2=O)C3=O)nc(Cl)c2ccccc12` (stereo not drawn) [Example 86, 3-(5-(1-chloro-4-ethoxyisoquinolin-3-yl)-1-oxoisoindolin-2-yl)piperidine-2,6-dione], for which the DC50 at Helios is 50 nM; on Ikaros it was 190 nM.

For the molecule `O=C1CCC(N2Cc3cc(-c4cc5c(cn4)OCCN5)ccc3C2=O)C(=O)N1` (stereo not drawn) [Example 87, 3-(5-(2,3-dihydro-1H-pyrido[3,4-b][1,4]oxazin-7-yl)-1-oxoisoindolin-2-yl)piperidine-2,6-dione], the DC50 at Helios is 100 nM; at Ikaros, not below 20000 nM.

On to `Cc1nc(-c2ccc3c(c2)CN(C2CCC(=O)NC2=O)C3=O)cc2ccccc12` (stereo not drawn) [Example 88, 3-(5-(1-methylisoquinolin-3-yl)-1-oxoisoindolin-2-yl)piperidine-2,6-dione], for which the values for the DC50 at Helios and on Ikaros were 20 nM and not below 20000 nM, respectively.

On to `O=C1CCC(N2Cc3cc(-c4cc5ccccc5c(C5CC5)n4)ccc3C2=O)C(=O)N1` (stereo not drawn) [Example 89, 3-(5-(1-cyclopropylisoquinolin-3-yl)-1-oxoisoindolin-2-yl)piperidine-2,6-dione], for which the DC50 on Helios was 2200 nM; at Ikaros, not below 20000 nM.

In the case of `N#Cc1cnc(-c2ccc3c(c2)CN(C2CCC(=O)NC2=O)C3=O)c2ccccc12` (stereo not drawn) [Example 90, -(2-(2,6-dioxopiperidin-3-yl)-1-oxoisoindolin-5-yl)isoquinoline-4-carbonitrile], the DC50 at Helios was 20 nM; on Ikaros it was 410 nM.

Take `O=C1CCC(N2Cc3cc(-c4ncnc5ccccc45)ccc3C2=O)C(=O)N1` (stereo not drawn) [Example 91, 3-(1-oxo-5-(quinazolin-4-yl)isoindolin-2-yl)piperidine-2,6-dione]: the figures for the DC50 on Helios and on Ikaros were 210 nM and not below 20000 nM, respectively.

On to `CN1CCc2nc(-c3ccc4c(c3)CN(C3CCC(=O)NC3=O)C4=O)ccc2C1=O` (stereo not drawn) [Example 92, 3-(5-(6-methyl-5-oxo-5,6,7,8-tetrahydro-1,6-naphthyridin-2-yl)-1-oxoisoindolin-2-yl)piperidine-2,6-dione], for which the DC50 at Helios was 1500 nM; on Ikaros, not below 20000 nM.

Consider `O=C1CCC(N2Cc3cc(-c4nc5ccccc5nc4Cl)ccc3C2=O)C(=O)N1` (stereo not drawn) [Example 93, 3-(5-(3-chloroquinoxalin-2-yl)-1-oxoisoindolin-2-yl)piperidine-2,6-dione], for which the DC50 on Helios was 17100 nM; at Ikaros, not below 20000 nM.

Regarding `COc1nc2ccccc2nc1-c1ccc2c(c1)CN(C1CCC(=O)NC1=O)C2=O` (stereo not drawn) [Example 94, 3-(5-(3-methoxyquinoxalin-2-yl)-1-oxoisoindolin-2-yl)piperidine-2,6-dione], the DC50 was 1070 nM at Helios and not below 20000 nM at Ikaros.

As for `CCNc1nc2ccccc2nc1-c1ccc2c(c1)CN(C1CCC(=O)NC1=O)C2=O` (stereo not drawn) [Example 95, 3-(5-(3-(ethylamino)quinoxalin-2-yl)-1-oxoisoindolin-2-yl)piperidine-2,6-dione], the DC50 on Helios worked out at 110 nM; at Ikaros, 310 nM.

For the molecule `O=C1CCC(N2Cc3cc(-c4nc5ccccc5nc4O)ccc3C2=O)C(=O)N1` (stereo not drawn) [Example 96, 3-(5-(3-hydroxyquinoxalin-2-yl)-1-oxoisoindolin-2-yl)piperidine-2,6-dione], the DC50 on Helios is 200 nM; at Ikaros, not below 20000 nM.

For `CC(C)c1nc2ccccc2nc1-c1ccc2c(c1)CN(C1CCC(=O)NC1=O)C2=O` (stereo not drawn) [Example 98, 3-(5-(3-isopropylquinoxalin-2-yl)-1-oxoisoindolin-2-yl)piperidine-2,6-dione], the DC50 was 860 nM at Helios and not below 20000 nM at Ikaros.

`O=C1CCC(N2Cc3cc(-c4nc5ccccc5nc4-c4ccccc4)ccc3C2=O)C(=O)N1` (stereo not drawn) [Example 99, 3-(1-oxo-5-(3-phenylquinoxalin-2-yl)isoindolin-2-yl)piperidine-2,6-dione]: the figures for the DC50 at Helios and at Ikaros were 340 nM and not below 20000 nM, respectively.

With `O=C1CCC(N2Cc3cc(-c4nccc5ncccc45)ccc3C2=O)C(=O)N1` (stereo not drawn) [Example 100, 3-(5-(1,6-naphthyridin-5-yl)-1-oxoisoindolin-2-yl)piperidine-2,6-dione], the DC50 was 210 nM on Helios and not below 20000 nM on Ikaros.

Turning to `Nc1ccc(Br)c(-c2ccc3c(c2)CN(C2CCC(=O)NC2=O)C3=O)n1` (stereo not drawn) [Example 101, 3-(5-(6-amino-3-bromopyridin-2-yl)-1-oxoisoindolin-2-yl)piperidine-2,6-dione], the DC50 is 470 nM on Helios and not below 20000 nM on Ikaros.

Regarding `Nc1ccc2cnc(-c3ccc4c(c3)CN(C3CCC(=O)NC3=O)C4=O)cc2c1` (stereo not drawn) [Example 102, 3-(5-(6-aminoisoquinolin-3-yl)-1-oxoisoindolin-2-yl)piperidine-2,6-dione], the DC50 on Helios is 2 nM; at Ikaros, not below 20000 nM.

Take `COc1cnc(-c2ccc3c(c2)CN(C2CCC(=O)NC2=O)C3=O)c2ccccc12` (stereo not drawn) [Example 103, 3-(5-(4-methoxyisoquinolin-1-yl)-1-oxoisoindolin-2-yl)piperidine-2,6-dione]: the DC50 is 10 nM at Helios and not below 20000 nM at Ikaros.

Regarding `COc1cccnc1-c1ccc2c(c1)CN(C1CCC(=O)NC1=O)C2=O` (stereo not drawn) [Example 104, 3-(5-(3-methoxypyridin-2-yl)-1-oxoisoindolin-2-yl)piperidine-2,6-dione], the values for the DC50 at Helios and on Ikaros were 130 nM and not below 20000 nM, respectively.

As for `O=C1CCC(N2Cc3cc(-c4ncc(OCc5ccccc5)c5ccccc45)ccc3C2=O)C(=O)N1` (stereo not drawn) [Example 105, 3-(5-(4-(benzyloxy)isoquinolin-1-yl)-1-oxoisoindolin-2-yl)piperidine-2,6-dione], the DC50 on Helios is 140 nM; at Ikaros it was not below 20000 nM.

Turning to `COc1ccc(N)nc1-c1ccc2c(c1)CN(C1CCC(=O)NC1=O)C2=O` (stereo not drawn) [Example 106, 3-(5-(6-amino-3-methoxypyridin-2-yl)-1-oxoisoindolin-2-yl)piperidine-2,6-dione], the DC50 at Helios was 20 nM; on Ikaros, not below 20000 nM.

Turning to `O=C1CCC(N2Cc3cc(-c4ncccc4CO)ccc3C2=O)C(=O)N1` (stereo not drawn) [Example 107, 3-(5-(3-(hydroxymethyl)pyridin-2-yl)-1-oxoisoindolin-2-yl)piperidine-2,6-dione], the DC50 is 1130 nM at Helios and not below 10000 nM on Ikaros.

Take `O=C1CCC(N2Cc3cc(-c4cc(CO)ccn4)ccc3C2=O)C(=O)N1` (stereo not drawn) [Example 108, 3-(5-(4-(hydroxymethyl)pyridin-2-yl)-1-oxoisoindolin-2-yl)piperidine-2,6-dione]: the DC50 is 830 nM on Helios and not below 10000 nM at Ikaros.

`O=C1CCC(N2Cc3cc(-c4ccccn4)ccc3C2=O)C(=O)N1` (stereo not drawn) [Example 109, 3-(1-oxo-5-(pyridin-2-yl)isoindolin-2-yl) piperidine-2,6-dione]: the results for the DC50 on Helios and at Ikaros were 610 nM and not below 10000 nM, respectively.

In the case of `N#Cc1ccnc(-c2ccc3c(c2)CN(C2CCC(=O)NC2=O)C3=O)c1` (stereo not drawn) [Example 110, 2-(2-(2,6-dioxopiperidin-3-yl)-1-oxoisoindolin-5-yl) isonicotinonitrile], the DC50 on Helios is 880 nM; on Ikaros, not below 10000 nM.

On to `N#CCc1ccnc(-c2ccc3c(c2)CN(C2CCC(=O)NC2=O)C3=O)c1` (stereo not drawn) [Example 111, 2-(2-(2-(2,6-dioxopiperidin-3-yl)-1-oxoisoindolin-5-yl)pyridin-4-yl)acetonitrile], for which the DC50 on Helios is 930 nM; on Ikaros, not below 10000 nM.

As to `Nc1cc(CO)cc(-c2ccc3c(c2)CN(C2CCC(=O)NC2=O)C3=O)n1` (stereo not drawn) [Example 112, 3-(5-(6-amino-4-(hydroxymethyl)pyridin-2-yl)-1-oxoisoindolin-2-yl)piperidine-2,6-dione], the DC50 was 420 nM at Helios and not below 10000 nM on Ikaros.

`O=C1CCC(N2Cc3cc(-c4cc5c(cn4)NCC5)ccc3C2=O)C(=O)N1` (stereo not drawn) [Example 113, 3-(5-(2,3-dihydro-1H-pyrrolo[2,3-c]pyridin-5-yl)-1-oxoisoindolin-2-yl)piperidine-2,6-dione]: the DC50 was 50 nM at Helios and not below 10000 nM on Ikaros.

The record behind these values is patent US12570671B2 (BRISTOL-MYERS SQUIBB COMPANY, priority 2020, dated 2026).
